Test results: ChEMBL document CHEMBL1137662, “Effect of oral treatment with hexadecyloxypropyl-[(S)-9-(3-hydroxy-2- phosphonylmethoxypropyl)adenine] [(S)-HPMPA] or octadecyloxyethyl-(S)-HPMPA on cowpox or vaccinia virus infections in mice” (Antimicrob Agents Chemother, 2007)
The source made the active and inactive calls. The rule behind the calls is not given here.

Assays:
Cowpox virus [1] = test: Antiviral activity against Cowpox virus Brighton infected BALB/c mouse assessed as mortality at 30 mg/kg, po treated for 5 days after 72 hrs of viral inoculation; format: functional, Cowpox virus (Brighton Red)
Cowpox virus [2] = test: Antiviral activity against Cowpox virus Brighton infected BALB/c mouse assessed as mortality at 3 mg/kg, po treated for 5 days after 72 hrs of viral inoculation; format: functional, Cowpox virus (Brighton Red)
Vaccinia virus [3] = test: Antiviral activity against Vaccinia virus WR infected BALB/c mouse assessed as mean death day at 30 mg/kg, po treated for 5 days after 48 hrs of viral inoculation; format: functional, Orthopoxvirus vaccinia
Vaccinia virus [4] = test: Antiviral activity against Vaccinia virus WR infected BALB/c mouse assessed as mortality at 3 mg/kg, po treated for 5 days after 72 hrs of viral inoculation; format: functional, Orthopoxvirus vaccinia
Vaccinia virus [5] = test: Antiviral activity against Vaccinia virus WR infected BALB/c mouse assessed as mortality at 30 mg/kg, po treated for 5 days after 72 hrs of viral inoculation; format: functional, Orthopoxvirus vaccinia
Vaccinia virus [6] = test: Antiviral activity against Vaccinia virus WR infected BALB/c mouse assessed as log reduction of viral titer per gram of kidney at 30 mg/kg, po treated for 5 days after 24 hrs of viral inoculation; format: functional, Orthopoxvirus vaccinia
Cowpox virus [7] = test: Antiviral activity against Cowpox virus Brighton infected BALB/c mouse assessed as mean death day at 3 mg/kg, po treated for 5 days after 48 hrs of viral inoculation; format: functional, Cowpox virus (Brighton Red)
Vaccinia virus [8] = test: Toxicity in Vaccinia virus WR infected BALB/c mouse assessed as survival at 30 mg/kg, po treated for 5 days after 24 hrs of viral inoculation; format: functional, organism-based; design: dose 30 mg/kg; details: Orthopoxvirus vaccinia
[9] = Selectivity index, ratio of CC50 for HFF cells to EC50 for Vaccinia virus Copenhagen; format: toxicity, cell-based; details: human, read-out: Ratio CC50/EC50
Cowpox virus [10] = test: Antiviral activity against Cowpox virus Brighton infected BALB/c mouse assessed as mortality at 3 mg/kg, po treated for 5 days after 24 hrs of viral inoculation; format: functional, Cowpox virus (Brighton Red)
Cowpox virus [11] = test: Antiviral activity against Cowpox virus Brighton infected BALB/c mouse assessed as mortality at 30 mg/kg, po treated for 5 days after 48 hrs of viral inoculation; format: functional, Cowpox virus (Brighton Red)
Vaccinia virus [12] = test: Antiviral activity against Vaccinia virus WR infected BALB/c mouse assessed as mean death day at 10 mg/kg, po treated for 5 days after 72 hrs of viral inoculation; format: functional, Orthopoxvirus vaccinia
Vaccinia virus [13] = test: Antiviral activity against Vaccinia virus WR infected BALB/c mouse assessed as mortality at 10 mg/kg, po treated for 5 days after 72 hrs of viral inoculation; format: functional, Orthopoxvirus vaccinia
Vaccinia virus [14] = test: Antiviral activity against Vaccinia virus WR infected BALB/c mouse assessed as mortality at 30 mg/kg, po treated for 5 days after 48 hrs of viral inoculation; format: functional, Orthopoxvirus vaccinia
Vaccinia virus [15] = test: Antiviral activity against Vaccinia virus WR infected BALB/c mouse assessed as mortality at 3 mg/kg, po treated for 5 days after 24 hrs of viral inoculation; format: functional, Orthopoxvirus vaccinia
Cowpox virus [16] = test: Antiviral activity against Cowpox virus Brighton infected BALB/c mouse assessed as log reduction of viral titer per gram of liver at 30 mg/kg, po treated for 5 days after 24 hrs of viral inoculation; format: functional, Cowpox virus (Brighton Red)
[17] = Selectivity index, ratio of CC50 for HFF cells to EC50 for Cowpox virus Brighton; format: toxicity, cell-based; details: human, read-out: Ratio CC50/EC50
Cowpox virus [18] = test: Antiviral activity against Cowpox virus Brighton infected BALB/c mouse assessed as mean death day at 30 mg/kg, po treated for 5 days after 72 hrs of viral inoculation; format: functional, Cowpox virus (Brighton Red)
Cowpox virus [19] = test: Antiviral activity against Cowpox virus Brighton in HFF cells assessed as reduction of viral replication after 3 days; format: functional, organism-based, Cowpox virus (Brighton Red); details: 72 h
Vaccinia virus [20] = test: Antiviral activity against Vaccinia virus WR infected BALB/c mouse assessed as mean death day at 10 mg/kg, po treated for 5 days after 48 hrs of viral inoculation; format: functional, Orthopoxvirus vaccinia
Vaccinia virus [21] = test: Antiviral activity against Vaccinia virus WR infected BALB/c mouse assessed as log reduction of viral titer per gram of spleen at 30 mg/kg, po treated for 5 days after 24 hrs of viral inoculation; format: functional, Orthopoxvirus vaccinia
Cowpox virus [22] = test: Antiviral activity against Cowpox virus Brighton infected BALB/c mouse assessed as mean death day at 10 mg/kg, po treated for 5 days after 24 hrs of viral inoculation; format: functional, Cowpox virus (Brighton Red)
Cowpox virus [23] = test: Antiviral activity against Cowpox virus Brighton infected BALB/c mouse assessed as mortality at 10 mg/kg, po treated for 5 days after 24 hrs of viral inoculation; format: functional, Cowpox virus (Brighton Red)
Cowpox virus [24] = test: Antiviral activity against Cowpox virus Brighton infected BALB/c mouse assessed as mortality at 30 mg/kg, po treated for 5 days after 24 hrs of viral inoculation; format: functional, Cowpox virus (Brighton Red)
Vaccinia virus [25] = test: Antiviral activity against Vaccinia virus WR infected BALB/c mouse assessed as mortality at 30 mg/kg, po treated for 5 days after 24 hrs of viral inoculation; format: functional, Orthopoxvirus vaccinia
[26] = Selectivity index, ratio of CC50 for HFF cells to EC50 for Vaccinia virus WR; format: toxicity, cell-based; details: human, read-out: Ratio CC50/EC50
Vaccinia virus [27] = test: Antiviral activity against Vaccinia virus WR infected BALB/c mouse assessed as mortality at 10 mg/kg, po treated for 5 days after 48 hrs of viral inoculation; format: functional, Orthopoxvirus vaccinia
Cowpox virus [28] = test: Antiviral activity against Cowpox virus Brighton infected BALB/c mouse assessed as mean death day at 30 mg/kg, po treated for 5 days after 24 hrs of viral inoculation; format: functional, Cowpox virus (Brighton Red)
Vaccinia virus [29] = test: Antiviral activity against Vaccinia virus WR infected BALB/c mouse assessed as log reduction of viral titer per gram of liver at 30 mg/kg, po treated for 5 days after 24 hrs of viral inoculation; format: functional, Orthopoxvirus vaccinia
Cowpox virus [30] = test: Antiviral activity against Cowpox virus Brighton infected BALB/c mouse assessed as mean death day at 10 mg/kg, po treated for 5 days after 72 hrs of viral inoculation; format: functional, Cowpox virus (Brighton Red)
Vaccinia virus [31] = test: Antiviral activity against Vaccinia virus WR infected BALB/c mouse assessed as mean death day at 3 mg/kg, po treated for 5 days after 72 hrs of viral inoculation; format: functional, Orthopoxvirus vaccinia
Cowpox virus [32] = test: Antiviral activity against Cowpox virus Brighton infected BALB/c mouse assessed as mean death day at 3 mg/kg, po treated for 5 days after 24 hrs of viral inoculation; format: functional, Cowpox virus (Brighton Red)
Cowpox virus [33] = test: Antiviral activity against Cowpox virus Brighton infected BALB/c mouse assessed as mean death day at 3 mg/kg, po treated for 5 days after 72 hrs of viral inoculation; format: functional, Cowpox virus (Brighton Red)
Vaccinia virus [34] = test: Antiviral activity against Vaccinia virus Copenhagen in HFF cells assessed as reduction of viral replication after 3 days; format: functional, organism-based; details: Orthopoxvirus vaccinia, 72 h
Cowpox virus [35] = test: Antiviral activity against Cowpox virus Brighton infected BALB/c mouse assessed as reduction of virus titer in lung at 30 mg/kg, po treated for 5 days after 24 hrs of viral inoculation; format: functional, organism-based; design: dose 30 mg/kg; details: Cowpox virus (Brighton Red)
Mus musculus = test: Toxicity in BALB/c mouse at 30 mg/kg, po; format: organism-based; design: dose 30 mg/kg, route oral; details: in vivo
Cowpox virus [36] = test: Antiviral activity against Cowpox virus Brighton infected BALB/c mouse assessed as mortality at 10 mg/kg, po treated for 5 days after 48 hrs of viral inoculation; format: functional, Cowpox virus (Brighton Red)
Vaccinia virus [37] = test: Antiviral activity against Vaccinia virus WR infected BALB/c mouse assessed as mean death day at 3 mg/kg, po treated for 5 days after 48 hrs of viral inoculation; format: functional, Orthopoxvirus vaccinia
Vaccinia virus [38] = test: Antiviral activity against Vaccinia virus WR infected BALB/c mouse assessed as mortality at 3 mg/kg, po treated for 5 days after 48 hrs of viral inoculation; format: functional, Orthopoxvirus vaccinia
Vaccinia virus [39] = test: Antiviral activity against Vaccinia virus WR infected BALB/c mouse assessed as mortality at 10 mg/kg, po treated for 5 days after 24 hrs of viral inoculation; format: functional, Orthopoxvirus vaccinia

SMILES	Activity (Cowpox virus [1])	Activity (Cowpox virus [2])	Activity (Vaccinia virus [3])	Activity (Vaccinia virus [4])	Activity (Vaccinia virus [5])	log10PFU (Vaccinia virus [6])	Activity (Cowpox virus [7])	Activity (Vaccinia virus [8])	selectivity ratio [9]	Activity (Cowpox virus [10])	Activity (Cowpox virus [11])	Activity (Vaccinia virus [12])	Activity (Vaccinia virus [13])	Activity (Vaccinia virus [14])	Activity (Vaccinia virus [15])	log10PFU (Cowpox virus [16])	selectivity ratio [17]	Activity (Cowpox virus [18])	EC50 (Cowpox virus [19])	Activity (Vaccinia virus [20])	further results
CCCCCCCCCCCCCCCCCCOCCOP(=O)(O)CO[C@H](CO)Cn1cnc2c(N)ncnc21	33%	93%	9.7 days	40%	73%	4 g	10.6 days	Not toxic	150	60%	13%	9 days	33%	40%	67%	2.5 g	75	10.6 days	20 nM	10.3 days	log10PFU (Vaccinia virus [21]): 4 g; Activity (Cowpox virus [22]): 14 days; Activity (Cowpox virus [23]): 7%; Activity (Cowpox virus [24]): 7%; Activity (Vaccinia virus [25]): 27%; selectivity ratio [26]: 15; Activity (Vaccinia virus [27]): 20%; Activity (Cowpox virus [28]): 13 days; log10PFU (Vaccinia virus [29]): 4 g; Activity (Cowpox virus [30]): 12.2 days; Activity (Vaccinia virus [31]): 9 days; Activity (Cowpox virus [32]): 13.7 days; Activity (Cowpox virus [33]): 11.1 days; EC50 (Vaccinia virus [34]): 10 nM; Activity (Cowpox virus [35]): inactive; Activity (Mus musculus): Non-toxic; Activity (Cowpox virus [36]): 20%; Activity (Vaccinia virus [37]): 7.9 days; Activity (Vaccinia virus [38]): 53%; Activity (Vaccinia virus [39]): 0%
CCCCCCCCCCCCCCCCOCCCOP(=O)(O)CO[C@H](CO)Cn1cnc2c(N)ncnc21	13%	87%	11 days	87%	7%	4 g	12.7 days	Not toxic	970	93%	13%	9.1 days	53%	7%	27%	2.5 g	485	6.5 days	20 nM	8 days	log10PFU (Vaccinia virus [21]): 4 g; Activity (Cowpox virus [22]): 13.8 days; Activity (Cowpox virus [23]): 67%; Activity (Cowpox virus [24]): 13%; Activity (Vaccinia virus [25]): 13%; selectivity ratio [26]: 32; Activity (Vaccinia virus [27]): 13%; Activity (Cowpox virus [28]): 15 days; log10PFU (Vaccinia virus [29]): 4 g; Activity (Cowpox virus [30]): 12.3 days; Activity (Vaccinia virus [31]): 7.8 days; Activity (Cowpox virus [32]): 11.4 days; Activity (Cowpox virus [33]): 10.1 days; EC50 (Vaccinia virus [34]): 10 nM; Activity (Cowpox virus [35]): inactive; Activity (Mus musculus): Non-toxic; Activity (Cowpox virus [36]): 27%; Activity (Vaccinia virus [37]): 9.2 days; Activity (Vaccinia virus [38]): 33%; Activity (Vaccinia virus [39]): 0%
